What was measured:
[1] = tested on: human gastric cancer NCI-N87; test: subcutaneous transplanted tumors of human gastric cancer NCI-N87 in nude mice; type: in vivo; details: Avastin 10 mg/kg IV (first dose doubled), D 0, 3, 7, 10, 14, 17
Protocol: (§1) The indicators of tumor inhibition experiments in mice were to investigate the effect of drugs on tumor growth, and the specific indicators were T/C % or the rate of tumor growth inhibition TGI (%).
(§2) The diameter of the tumor was measured with a vernier caliper twice a week, and the formula for calculating the tumor volume (V) was: V=½xaxb^2, wherein a and b represented the length and width, respectively.
(§3) T/C(%)=(T−T0)/(C−C0)×100,
(§4) If a tumor was smaller than the initial volume, i.e., T<T0 or C<C0, it was defined as partial regression (PR) of the tumor; if a tumor disappeared completely, it was defined as complete regression (CR) of the tumor.
(§5) At the end of the experiment (e.g., D21), reaching the experimental endpoint, or the tumor volume reached 1,500 mm^3, the animals were sacrificed after CO2 anesthesia, and then the tumors were dissected and photographed.
Nude mice were subcutaneously (SC) inoculated with 6×10^6 human gastric cancer NCI-N87 cells. After the tumor grew to 100-150 mm^3, the animals were grouped according to tumor volume (D0). Mice were administered subcutaneously (SC) or intravenously (IV), twice a week (BIW); the administration volume was 10 mL/kg; the solvent group was administered with the same volume of “solvent” (normal saline); specific dosage and administration regimen were shown in Table 1. The tumor volumes were measured twice a week, the mice were weighed, and the data were recorded.
(§6) Two-tailed Student's t-test was used to compare tumor volumes between the two groups, and P<0.05 was defined as a statistically significant difference.

[2] = tested on: human liver cancer Huh-7; test: subcutaneous transplanted tumors of human liver cancer Huh-7 in nude mice; type: in vivo; details: Avastin 10 mg/kg IV (first dose doubled), D 0, 3, 7, 10, 14
Protocol: as §1, §2, §3, §4, §5
Nude mice were subcutaneously inoculated with 6×10^6 human liver cancer Huh-7 cells. After the tumor grew to 100-150 mm^3, the animals were grouped according to tumor volume (D0). Mice were administered subcutaneously (SC) or intravenously (IV), twice a week (BIW); the administration volume was 10 mL/kg; the solvent group was administered with the same volume of “solvent” (normal saline); specific dosage and administration regimen were shown in Table 2. The tumor volumes were measured twice a week, the mice were weighed, and the data were recorded.
as §6

[3] = half-life in rats; type: in vivo
[4] = half-life in cynomolgus monkeys; type: in vivo
[5] = specific activity in vitro
[6] = tested on: hairy cell leukemia; details: hairy cell leukemia patients; cited from earlier work
[7] = tested on: metastatic renal cancer and multiple myeloma; details: high-dose (500 μg/day) injection, patients; cited from earlier work

Molecule | % T/C D 21 [1] | Mean tumor volume D 21 SEM [1] | Tumor inhibition rate % D 21 [1] | Mean tumor volume D 0 SEM ([1]; baseline at grouping) | % T/C D 17 [2] | Mean tumor volume D 17 SEM [2] | Tumor inhibition rate % D 17 [2] | Mean tumor volume D 0 SEM ([2]; baseline at grouping) | half-life [3] | half-life [4] | specific activity relative to ordinary interferon α2a and 2b [5] | adverse reaction [6] | effective rate [6] | remission rate [6] | adverse reactions compared with other ordinary interferons [7] | therapeutic effect [7]
Avastin: Bevacizumab injection, commercially available monoclonal antibody purchased from Roche Pharmaceuticals [reference compound] | 51% | 561.1 ± 53.4 mm^3 | 49% | 115.7 ± 2.7 mm^3 | 60% | 1791.6 ± 105.7 mm^3 | 40% | 122.7 ± 1.8 mm^3 |  |  |  |  |  |  |  | 
ordinary interferon α1b: unmodified recombinant human interferon α1b, 166 amino acids, SEQ ID No.: 1 (protein, UniProt P01562 24-189, looked up) Interferon alpha-1/13: CDLPETHSLDNRRTLMLLAQMSRISPSSCLMDRHDFGFPQEEFDGNQFQKAPAISVLHELIQQIFNLFTTKDSSAAWDEDLLDKFCTELYQQLNDLEACVMQEERVGETPLMNADSILAVKKYFRRITLYLTEKKYSPCAWEVVRAEIMRSLSLSTNLQERLRRKE |  |  |  |  |  |  |  |  | 1.84 h | 3.27 ± 1.48 h | 10% | only a short-term low-grade fever | 63.64% | 36.36% | milder | certain therapeutic effect
